This assay deals with oseltamivir-sensitive (WSN^274H) and oseltamivir-resistant (WSN^274Y) H1N1 influenza viruses. The class given is binding, H1N1 influenza virus.

Like-named read-outs stand apart in the source and are kept apart here.

Regarding `C#CCCC(=O)NC1C(O)C(F)C(F)(C(=O)O)OC1[C@H](O)[C@H](O)CO` (stereo partly drawn) [DFSA-5-yne, 5-(Pent-4-ynamido)-2,3,5-trideoxy-3-fluoro-D-erythro-β-L-manno-non-2-ulopyranosylonic fluoride], the “labeling of OS^s and OS^r H1N1 influenza viruses” value (in the absence of OS) was “labeled”; the “labeling of OS^s and OS^r H1N1 influenza viruses” value (in the presence of competing OS) is “only the OS^r virus was detectable”.

The values are drawn from patent US10214765B2, “Cell-permeable probes for identification and imaging of sialidases” (Academina Sinica, priority 2012, dated 2019).
